Experimental data taken from ChEMBL document CHEMBL5344429, “1,3-Substituted β-Carboline Derivatives as Potent Chemotherapy for the Treatment of Cystic Echinococcosis” (J Med Chem, 2023).
The source made the active and inactive calls. No cut-off for these calls is given here.

Experiments:
[1] = test system: Echinococcus granulosus; test: Parasiticidal activity against Echinococcus granulosus protoscolices assessed as death rate at 5 uM incubated for 4 days by eosin exclusion test; type: functional; conditions: time 4 day
[2] = test system: Echinococcus granulosus; test: Parasiticidal activity against Echinococcus granulosus protoscolices assessed as loss of hooks at 5 uM incubated for 4 days by scanning electron microscopy; type: functional, organism-based; conditions: time 4.0 day
[3] = test system: Echinococcus granulosus; test: Parasiticidal activity against Echinococcus granulosus protoscolices assessed as partial vacuolar change at 5 uM incubated for 4 days by scanning electron microscopy analysis; type: functional, organism-based; conditions: time 4.0 day
[4] = test system: Echinococcus granulosus; test: Parasiticidal activity against Echinococcus granulosus cyst assessed as formation of dense aggregates at 100 uM incubated for 4 days by scanning electron microscopy; type: functional, organism-based; conditions: time 4.0 day
[5] = test system: Echinococcus granulosus; test: Parasiticidal activity against Echinococcus granulosus protoscolices assessed as appearance of blurred marginal structure at 5 uM incubated for 4 days by scanning electron microscopy analysis; type: functional, organism-based; conditions: time 4.0 day
[6] = test system: Echinococcus granulosus; test: Parasiticidal activity against Echinococcus granulosus protoscolices assessed as appearance of body shrank at 5 uM incubated for 4 days by scanning electron microscopy analysis; type: functional, organism-based; conditions: time 4.0 day
[7] = test system: Echinococcus granulosus; test: Parasiticidal activity against Echinococcus granulosus assessed as collapse of germinal layers at 100 uM incubated for 4 days by scanning electron microscopy; type: functional, organism-based; conditions: time 4.0 day
[8] = Oral bioavailability in Wistar rat at 50 mg/kg, […] by HPLC analysis; type: ADME, organism-based; conditions: in vivo
[9] = test system: Echinococcus granulosus; test: Parasiticidal activity against Echinococcus granulosus protoscolices assessed as loss of suckers at 5 uM incubated for 4 days by scanning electron microscopy; type: functional; conditions: time 4 day
[10] = test system: Echinococcus granulosus; test: Parasiticidal activity against Echinococcus granulosus protoscolices assessed as lethal effect at 0.5 to 5 uM by eosin exclusion test; type: functional, organism-based; conditions: dose 0.5-5 µM, TDE = time-dependent effect
[11] = test system: Echinococcus granulosus; test: Parasiticidal activity against Echinococcus granulosus cyst assessed as seperation from cuticle at 100 uM incubated for 4 days by scanning electron microscopy; type: functional, organism-based; conditions: time 4.0 day
[12] = test system: Echinococcus granulosus; test: Parasiticidal activity against Echinococcus granulosus protoscolices assessed as lethal effect incubated for 4 days by eosin exclusion test; type: functional, organism-based; conditions: dose 0.5-5 µM, time 4.0 day
[13] = test system: Echinococcus granulosus; test: Potency index, ratio of Harmine LC50 to test compound LC50 for Parasiticidal activity against Echinococcus granulosus protoscolices; type: functional
[14] = test system: Echinococcus granulosus; test: Parasiticidal activity against Echinococcus granulosus protoscolices assessed as death rate at 0.5 uM incubated for 4 days by eosin exclusion test; type: functional; conditions: time 4 day
[15] = test system: Echinococcus granulosus; test: Parasiticidal activity against Echinococcus granulosus protoscolices assessed as increase in death rate at 5 uM incubated for 4 days by darker staining-based light microscopy; type: functional, organism-based; conditions: time 4.0 day
[16] = test system: Echinococcus granulosus; test: Parasiticidal activity against Echinococcus granulosus protoscolices assessed as change in ultrastructure at 5 uM incubated for 4 days by scanning electron microscopy; type: functional, organism-based; conditions: time 4.0 day
[17] = test system: Echinococcus granulosus; test: Parasiticidal activity against Echinococcus granulosus protoscolices assessed as degeneration of outer skin at 5 uM incubated for 4 days by scanning electron microscopy; type: functional, organism-based; conditions: time 4.0 day
[18] = Cmax in Wistar rat at 5 mg/kg, iv by HPLC analysis; type: ADME, organism-based; design: dose 5 mg/kg, route iv; conditions: in vivo
[19] = test system: Echinococcus granulosus; test: Parasiticidal activity against Echinococcus granulosus protoscolices assessed as appearance of rostellum hooks fall off at 5 uM incubated for 4 days by scanning electron microscopy analysis; type: functional, organism-based; conditions: time 4.0 day
[20] = test system: Echinococcus granulosus; test: Parasiticidal activity against Echinococcus granulosus protoscolices […] by eosin exclusion test; type: functional; conditions: 1152 h, time 48 day
[21] = AUC (0 to infinity) in Wistar rat at 5 mg/kg, iv by HPLC analysis; type: ADME, organism-based; design: dose 5 mg/kg, route iv; conditions: in vivo
[22] = test system: Echinococcus granulosus; test: Induction of autophagy in Echinococcus granulosus protoscolices assessed as increase in ATG5 expression level at 5 uM measured after 4 days by Western blot analysis; type: functional, organism-based; conditions: time 4.0 day
[23] = test system: Echinococcus granulosus; test: Parasiticidal activity against Echinococcus granulosus protoscolices assessed as appearance of dissolved and disappeared matrix at 5 uM incubated for 4 days by H and E staining based assay; type: functional, organism-based; conditions: time 4.0 day
[24] = test system: Echinococcus granulosus; test: Parasiticidal activity against intraperitoneal cystic Echinococcus granulosus infected in Kunming mouse assessed as appearance of vacuole-like structure at 50 mg/kg, ip administered for 28 days by TEM analysis; type: functional, organism-based; conditions: time 28.0 day
[25] = test system: Echinococcus granulosus; test: Parasiticidal activity against Echinococcus granulosus protoscolices assessed as appearance of whole body vacuolation at 5 uM incubated for 4 days by H and E based staining assay; type: functional, organism-based; conditions: time 4.0 day
[26] = test system: Echinococcus granulosus; test: Parasiticidal activity against Echinococcus granulosus microcyst infected in kunming mouse assessed as mean cyst weight at 12.5 mg/kg, ip administered for 14 days; type: functional; conditions: time 14 day
[27] = Neurotoxicity in Kunming mouse assessed as effect on heterochromatin at 50 mg/kg, ip administered for 28 days by TEM analysis; type: toxicity, organism-based; conditions: in vivo, 672 h, time 28 day
[28] = test system: Echinococcus granulosus; test: Parasiticidal activity against Echinococcus granulosus microcyst infected in kunming mouse assessed as mean cyst weight at 50 mg/kg, ip administered for 14 days; type: functional; conditions: time 14 day
[29] = test system: Echinococcus granulosus; test: Parasiticidal activity against Echinococcus granulosus microcyst infected in kunming mouse assessed as reduction in cyst weight at 12.5 mg/kg, ip administered for 14 days relative to control; type: functional; design: scale not given: the % may be the effect or the level left; conditions: time 14 day
[30] = Neurotoxicity in Kunming mouse assessed as effect on hippocampal arrangement at 50 mg/kg, ip administered for 28 days by TEM analysis; type: toxicity, organism-based; conditions: in vivo, 672 h, time 28 day
[31] = Half life in Wistar rat at 5 mg/kg, iv by HPLC analysis; type: ADME, organism-based; conditions: in vivo
[32] = test system: Echinococcus granulosus; test: Parasiticidal activity against intraperitoneal cystic Echinococcus granulosus infected in Kunming mouse assessed as cell structure destruction at 50 mg/kg, ip administered for 28 days by TEM analysis; type: functional, organism-based; conditions: time 28.0 day
[33] = test system: Echinococcus granulosus; test: Parasiticidal activity against Echinococcus granulosus microcyst infected in kunming mouse assessed as reduction in cyst weight at 50 mg/kg, ip administered for 14 days relative to control; type: functional; design: scale not given: the % may be the effect or the level left; conditions: time 14 day
[34] = test system: Echinococcus granulosus; test: Parasiticidal activity against Echinococcus granulosus microcyst infected in kunming mouse assessed as reduction in cyst weight at 12.5 mg/kg, ip administered for 28 days relative to control; type: functional; design: scale not given: the % may be the effect or the level left; conditions: time 28 day
[35] = Neurotoxicity in Kunming mouse assessed as effect on hippocampal structure at 50 mg/kg, ip administered for 28 days by TEM analysis; type: toxicity, organism-based; conditions: in vivo, 672 h, time 28 day
[36] = test system: Echinococcus granulosus; test: Parasiticidal activity against intraperitoneal cystic Echinococcus granulosus infected in Kunming mouse assessed as disappearance of nucleolus at 50 mg/kg, ip administered for 28 days by TEM analysis; type: functional, organism-based; conditions: time 28.0 day
[37] = Neurotoxicity in Kunming mouse assessed as loosely arranged pyramidal cells in brain at 50 mg/kg, ip administered for 28 days by H and E staining based assay; type: toxicity, organism-based; conditions: in vivo, 672 h, time 28 day
[38] = test system: Echinococcus granulosus; test: Parasiticidal activity against Echinococcus granulosus microcyst infected in kunming mouse assessed as mean cyst weight at 25 mg/kg, ip administered for 28 days; type: functional; conditions: time 28 day
[39] = test system: Echinococcus granulosus; test: Parasiticidal activity against Echinococcus granulosus microcyst infected in kunming mouse assessed as reduction in cyst weight at 25 mg/kg, ip administered for 14 days relative to control; type: functional; design: scale not given: the % may be the effect or the level left; conditions: time 14 day
[40] = test system: Echinococcus granulosus; test: Parasiticidal activity against Echinococcus granulosus microcyst infected in kunming mouse assessed as reduction in cyst weight at 25 mg/kg, ip administered for 28 days relative to control; type: functional; design: scale not given: the % may be the effect or the level left; conditions: time 28 day
[41] = test system: Echinococcus granulosus; test: Parasiticidal activity against Echinococcus granulosus microcyst infected in kunming mouse assessed as mean cyst weight at 12.5 mg/kg, ip administered for 28 days; type: functional; conditions: time 28 day
[42] = Neurotoxicity in Kunming mouse assessed as swollen pyramidal cells in brain at 50 mg/kg, ip administered for 28 days by H and E staining based assay; type: toxicity, organism-based; conditions: in vivo, 672 h, time 28 day
[43] = test system: Echinococcus granulosus; test: Parasiticidal activity against Echinococcus granulosus microcyst infected in kunming mouse assessed as reduction in cyst weight at 50 mg/kg, ip administered for 28 days relative to control; type: functional; design: scale not given: the % may be the effect or the level left; conditions: time 28 day
[44] = test system: Echinococcus granulosus; test: Potency index, ratio of Albendazole LC50 to test compound LC50 for Parasiticidal activity against Echinococcus granulosus protoscolices; type: functional
[45] = test system: Echinococcus granulosus; test: Parasiticidal activity against Echinococcus granulosus protoscolices assessed as appearance of disintegrated marginal structure at 5 uM incubated for 4 days by H and E staining based assay; type: functional, organism-based; conditions: time 4.0 day
[46] = Neurotoxicity in Kunming mouse assessed as nuclei damage at 50 mg/kg, ip administered for 28 days by TEM analysis; type: toxicity, organism-based; conditions: in vivo, 672 h, time 28 day
[47] = test system: Echinococcus granulosus; test: Induction of autophagy in Echinococcus granulosus protoscolices assessed as decrease in p62 expression level at 5 uM measured after 4 days by Western blot analysis; type: functional, organism-based; conditions: time 4.0 day
[48] = Neurotoxicity in Kunming mouse assessed as deformed pyramidal cells in brain at 50 mg/kg, ip administered for 28 days by H and E staining based assay; type: toxicity, organism-based; conditions: in vivo, 672 h, time 28 day
[49] = Neurotoxicity in Kunming mouse assessed as organelles damage at 50 mg/kg, ip administered for 28 days by TEM analysis; type: toxicity, organism-based; conditions: in vivo, 672 h, time 28 day
[50] = test system: Echinococcus granulosus; test: Parasiticidal activity against Echinococcus granulosus microcyst infected in kunming mouse assessed as mean cyst weight at 50 mg/kg, ip administered for 28 days; type: functional; conditions: time 28 day
[51] = test system: Echinococcus granulosus; test: Induction of autophagy in Echinococcus granulosus protoscolices assessed as increase in Beclin1 expression level at 5 uM measured after 4 days by Western blot analysis; type: functional, organism-based; conditions: time 4.0 day
[52] = test system: Echinococcus granulosus; test: Parasiticidal activity against Echinococcus granulosus microcyst infected in kunming mouse assessed as mean cyst weight at 25 mg/kg, ip administered for 14 days; type: functional; conditions: time 14 day
[53] = Half life in Wistar rat at 50 mg/kg, ip by HPLC analysis; type: ADME, organism-based; conditions: in vivo

Compound: Cc1nc(NC(=O)c2ccc(CN3CCC(N4CCCCC4)CC3)cc2)cc2c1[nH]c1ccccc12
- Activity [1]: >90%
- Activity [2]: Active
- Activity [3]: Active
- Activity [4]: Active
- Activity [5]: Active
- Activity [6]: Active
- Activity [7]: Active
- bioavailability [8]: 15.5%
- Activity [9]: 59.4%
- Activity [10]: Tde
- Activity [11]: Active
- Activity [12]: Dose-Dependent Effect
- RatioLC50 [13]: 84
- Activity [14]: >50%
- Activity [15]: Active
- Activity [16]: Active
- Activity [17]: Active
- Cmax [18]: 1.12 µg/mL
- Activity [19]: Active
- LC50 [20]: 2.39 µM
- AUC(0-inf) [21]: 1.41 µg·h/mL

Compound: COc1ccc(-c2nc(NC(=O)c3ccc(CN4CCC(O)CC4)cc3)cc3c2[nH]c2ccccc23)cc1
- Activity [22]: Active
- Activity [1]: >90%
- Activity [23]: Active
- Activity [24]: Active
- Activity [2]: Active
- Activity [25]: Active
- Activity [26]: 20.9 mg
- Activity [27]: Non-Toxic
- Activity [28]: 13.7 mg
- Activity [4]: Active
- Activity [29]: 59.41%
- Activity [30]: Non-Toxic
- half-life [31]: 3.11 h
- Activity [32]: Active
- Activity [7]: Active
- bioavailability [8]: 42.4%
- Activity [33]: 73.35%
- Activity [34]: 51.12%
- Activity [35]: Non-Toxic
- Activity [36]: Active
- Activity [37]: Non-Toxic
- Activity [38]: 15.2 mg
- Activity [39]: 64.79%
- Activity [9]: 67.5%
- Activity [40]: 72.05%
- Activity [41]: 17.8 mg
- Activity [10]: Tde
- Activity [11]: Active
- Activity [42]: Non-Toxic
- Activity [43]: 76.87%
- Activity [12]: Dose-Dependent Effect
- RatioLC50 [44]: 95
- Activity [45]: Active
- Activity [14]: >50%
- Activity [46]: Non-Toxic
- Activity [47]: Active
- Activity [15]: Active
- Activity [16]: Active
- Activity [48]: Non-Toxic
- Activity [49]: Non-Toxic
- Activity [17]: Active
- Activity [50]: 12.6 mg
- Cmax [18]: 3.04 µg/mL
- Activity [51]: Active
- Activity [52]: 18.1 mg
- LC50 [20]: 1.61 µM
- AUC(0-inf) [21]: 3 µg·h/mL
- half-life [53]: 9.08 h
